Data: patent publication US12655116B2, “Substituted isophthalic acid diamides” (Bayer Aktiengesellschaft, priority 2020, dated 2026)

How the values were obtained:
VERPE = test: Pre-emergence herbicidal action against VERPE; format: in vivo, Veronica persica; conditions: dosage 80 g/ha
Method in brief: (§1)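 Visual rating at 3 weeks vs untreated pots; 0–100% scale, 100% = plants died. Treatment: aqueous WP/EC spray onto covering soil, 600–800 l/ha, 0.2% wetter, seeds in sandy loam.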

MATIN = test: Pre-emergence herbicidal action against MATIN; format: in vivo, Matricaria inodora
Method in brief: as §1

AMARE [1] = test: Pre-emergence herbicidal action against AMARE; format: in vivo, Amaranthus retroflexus
Method in brief: as §1

ECHCG [2] = test: Pre-emergence herbicidal action against ECHCG; format: in vivo, Echinochloa crus-galli; conditions: 80 g/ha
Method in brief: as §1

PHBPU = test: Post-emergence herbicidal action against PHBPU; format: in vivo, Pharbitis purpurea
Method in brief: (§2)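 Weeds in sandy loam soil received a post-emergence spray at the one-leaf stage. Compounds were applied as WP or EC in water, 600 to 800 l/ha, with 0.2% wetting agent. Activity in % was judged visually after roughly 3 weeks against untreated plants.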

ECHCG [3] = test: Post-emergence herbicidal action against ECHCG; format: in vivo, Echinochloa crus-galli
Method in brief: as §2

ABUTH [4] = test: Pre-emergence herbicidal action against ABUTH; format: in vivo, Abutilon theophrasti; conditions: for Pre-emergence action against ABUTH (herbicidal activity): 80 g/ha, scored visually after 3 weeks vs untreated controls (100% = plants have died, 0% = like control plants); for Pre-emergence action against ABUTH (herbicidal activity in percent): dosage 20 g/ha, scored visually after 3 weeks vs untreated controls, 100% = plants have died, 0% = like control plants
Method in brief: as §1

ABUTH [5] = test: Post-emergence herbicidal action against ABUTH; format: in vivo, Abutilon theophrasti; conditions: visual assessment about 3 weeks after treatment vs untreated controls
Method in brief: as §2

LOLRI = test: Pre-emergence herbicidal action against LOLRI; format: in vivo, Lolium rigidum; conditions: 80 g/ha
Excerpt: Seeds of monocotyledonous and dicotyledonous weed plants and crop plants are laid out in sandy loam soil in wood-fiber pots and covered with soil. The compounds of the invention, formulated in the form of wettable powders (WP) or as emulsion concentrates (EC), are then applied to the surface of the covering soil in the form of an aqueous suspension or emulsion at a water application rate equivalent to 600 to 800 l/ha, with addition of 0.2% wetting agent. After the treatment, the pots are placed in a greenhouse and kept under good growth conditions for the trial plants. The damage to the test plants is scored visually after a test period of 3 weeks by comparison with untreated controls (herbicidal activity in percent (%): 100% activity=the plants have died, 0% activity=like control plants). […] The tables below illustrate, in an illustrative manner, the post-emergence herbicidal action of the compounds of the invention, the herbicidal activity being stated in percent.

AMARE [6] = test: Post-emergence herbicidal action against AMARE; format: in vivo, Amaranthus retroflexus; conditions: 20 g/ha, visual assessment about 3 weeks after treatment, 100% = plants have died, 0% = like control plants
Method in brief: as §2

SETVI [7] = test: Post-emergence herbicidal action against SETVI; format: in vivo, Setaria viridis
Method in brief: as §2

SETVI [8] = test: Pre-emergence herbicidal action against SETVI; format: in vivo, Setaria viridis; conditions: dosage 80 g/ha
Method in brief: as §1

VIOTR = test: Pre-emergence herbicidal action against VIOTR; format: in vivo, Viola tricolor; conditions: dosage 80 g/ha
Method in brief: as §1

AVEFA [9] = test: Pre-emergence herbicidal action against AVEFA; format: in vivo, Avena fatua; conditions: 80 g/ha, pre-emergence
Method in brief: as §1

STEME [10] = test: Pre-emergence herbicidal action against STEME; format: in vivo, Stellaria media
Method in brief: as §1

AVEFA [11] = test: Post-emergence herbicidal action against AVEFA; format: in vivo, Avena fatua; conditions: 20 g/ha, visual assessment about 3 weeks after treatment, 100% = plants have died, 0% = like control plants
Method in brief: as §2

DIGSA [12] = test: Pre-emergence herbicidal action against DIGSA; format: in vivo, Digitaria sanguinalis
Method in brief: as §1

STEME [13] = test: Post-emergence herbicidal action against STEME; format: in vivo, Stellaria media
Method in brief: as §2

POLCO = test: Pre-emergence herbicidal action against POLCO; format: in vivo, Polygonum convolvulus
Method in brief: as §1

DIGSA [14] = test: Post-emergence herbicidal action against DIGSA; format: in vivo, Digitaria sanguinalis
Method in brief: as §2

[15] = 20 g/ha, scored visually after 3 weeks vs untreated controls, 100% = plants have died, 0% = like control plants
[16] = 80 g/ha, scored visually after 3 weeks vs untreated controls (100% = plants have died, 0% = like control plants)

Structure (SMILES): Cn1nnnc1NC(=O)c1ccc(C(F)F)c(C(=O)NCC2CCCO2)c1Cl (stereo not drawn) [Example 1-159]
- Pre-emergence action against VERPE in % (VERPE): 80%
- Pre-emergence action against MATIN in % (MATIN; dosage 80 g/ha): 90%
- Pre-emergence action against AMARE in % (AMARE [1]; [15]): 100%
- Pre-emergence action against AMARE in % (AMARE [1]; [16]): 100%
- Pre-emergence action against ECHCG in % (ECHCG [2]): 90%
- Post-emergence action against PHBPU in % (PHBPU; dosage 5 g/ha): 80%
- Post-emergence action against PHBPU in % (PHBPU; dosage 20 g/ha): 80%
- Post-emergence action against ECHCG in % (ECHCG [3]; dosage 20 g/ha): 90%
- Pre-emergence action against ABUTH (herbicidal activity) (ABUTH [4]): 100%
- Pre-emergence action against ABUTH (herbicidal activity in percent) (ABUTH [4]): 80%
- Post-emergence action against ABUTH in % (ABUTH [5]; dosage 20 g/ha): 80%
- Pre-emergence action against LOLRI in % (LOLRI): 80%
- Post-emergence action at 20 g/ha against AMARE in % (AMARE [6]): 100%

Structure (SMILES): CNC(=O)c1c(C(F)F)ccc(C(=O)Nc2nnco2)c1SC [Example 5-74]
- Pre-emergence action against MATIN in % (MATIN; dosage 20 g/ha): 80%
- Pre-emergence action against MATIN in % (MATIN; dosage 80 g/ha): 90%
- Post-emergence action against SETVI in % (SETVI [7]; dosage 5 g/ha): 80%
- Post-emergence action against SETVI in % (SETVI [7]; dosage 20 g/ha): 90%
- Pre-emergence action against AMARE in % (AMARE [1]; [15]): 100%
- Pre-emergence action against AMARE in % (AMARE [1]; [16]): 100%
- Pre-emergence action against SETVI in % (SETVI [8]): 90%
- Pre-emergence action against VIOTR in % (VIOTR): 100%
- Pre-emergence action against AVEFA in % (AVEFA [9]): 80%
- Pre-emergence action against ECHCG in % (ECHCG [2]): 90%
- Post-emergence action against PHBPU in % (PHBPU; dosage 20 g/ha): 100%
- Post-emergence action against ECHCG in % (ECHCG [3]; dosage 5 g/ha): 80%
- Post-emergence action against ECHCG in % (ECHCG [3]; dosage 20 g/ha): 80%
- Pre-emergence action against ABUTH (herbicidal activity) (ABUTH [4]): 100%
- Pre-emergence action against ABUTH (herbicidal activity in percent) (ABUTH [4]): 80%
- Pre-emergence action against STEME in % (STEME [10]; dosage 20 g/ha): 90%
- Pre-emergence action against STEME in % (STEME [10]; dosage 80 g/ha): 100%
- Post-emergence action against ABUTH in % (ABUTH [5]; dosage 5 g/ha): 90%
- Post-emergence action against ABUTH in % (ABUTH [5]; dosage 20 g/ha): 90%
- Post-emergence action at 20 g/ha against AVEFA in % (AVEFA [11]): 80%
- Pre-emergence action against DIGSA in % (DIGSA [12]; dosage 20 g/ha): 90%
- Pre-emergence action against DIGSA in % (DIGSA [12]; dosage 80 g/ha): 100%
- Post-emergence action against STEME in % (STEME [13]; 20 g/ha): 90%
- Post-emergence action against STEME in % (STEME [13]; dosage 5 g/ha): 80%
- Pre-emergence action against POLCO in % (POLCO; dosage 20 g/ha): 80%
- Pre-emergence action against POLCO in % (POLCO; dosage 80 g/ha): 80%
- Post-emergence action at 20 g/ha against AMARE in % (AMARE [6]): 100%
- Post-emergence action against DIGSA in % (DIGSA [14]; 5 g/ha): 90%
- Post-emergence action against DIGSA (DIGSA [14]; 20 g/ha): 90%
